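Protocol summary: plate cells (96-well), add compound at 5 concentrations, incubate 48 h, interpolate endpoints linearly. The concentration for 50% growth inhibition is given as GI50.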 The source made the active and inactive calls. Rule as the data show it: active = GI50 up to about 1.1 µM and inactive = higher.
Tests used:
Experiment in all cases: NCI-60 cell line screen, 48 h
[1] = system: M14
[2] = system: SW-620
[3] = system: HT-29
[4] = system: DMS-114
[5] = system: SN12C
[6] = system: OVCAR-5
[7] = system: CAKI-1
[8] = system: HCT-116
[9] = system: HOP-92
[10] = system: SF-295
[11] = system: UO-31
[12] = system: OVCAR-3
[13] = system: DMS-273
[14] = system: NCI-H226
[15] = system: SNB-19
[16] = system: LOX IMVI
[17] = system: NCI-H460
[18] = system: SK-MEL-2
[19] = system: Malme-3M
[20] = system: HCT-15
[21] = system: UACC-257
[22] = system: HOP-62
[23] = system: LXFL 529
[24] = system: SR
[25] = system: HL-60
[26] = system: HOP-18
[27] = system: HCC 2998
[28] = system: M19-MEL
[29] = system: OVCAR-4
[30] = system: OVCAR-8
[31] = system: COLO 205
[32] = system: KM-20L2
[33] = system: KM12
[34] = system: NCI-H522
[35] = system: CCRF-CEM
[36] = system: RXF 393
[37] = system: U-251
[38] = system: A549
[39] = system: ACHN
[40] = system: 786-0
[41] = system: NCI-H23
[42] = system: SK-OV-3
[43] = system: SNB-75
[44] = system: IGROV-1
[45] = system: DLD-1
[46] = system: TK-10
[47] = system: SK-MEL-5
[48] = system: RPMI-8226
[49] = system: SF-268
[50] = system: UACC-62
[51] = system: A498
[52] = system: SF-539
[53] = system: K562
[54] = system: MOLT-4

**Q.** COc1ccc(C(=O)C(C(=O)CCC(=O)Nc2ccc(C)c(C)c2)c2ccc(OC)cc2)cc1 (stereo not drawn) was tested. Which GI50 [1] did it give?
**A.** > 100 µM (inactive)

**Q.** What about the GI50 [2] of the same molecule?
**A.** > 100 µM (inactive)

**Q.** What about the GI50 [3] of the same molecule?
**A.** > 100 µM (inactive)

**Q.** What about the GI50 [4] of the same molecule?
**A.** > 100 µM (inactive)

**Q.** What about the GI50 [5] of the same molecule?
**A.** > 100 µM (inactive)

**Q.** What about the GI50 [6] of the same molecule?
**A.** > 100 µM (inactive)

**Q.** What about the GI50 [7] of the same molecule?
**A.** > 100 µM (inactive)

**Q.** What about the GI50 [8] of the same molecule?
**A.** > 100 µM (inactive)

**Q.** And the GI50 [9]?
**A.** 48.9 µM (inactive)

**Q.** What about the GI50 [10] of the same molecule?
**A.** > 100 µM (inactive)

**Q.** And the GI50 [11]?
**A.** > 100 µM (inactive)

**Q.** And the GI50 [12]?
**A.** > 100 µM (inactive)

**Q.** What about the GI50 [13] of the same molecule?
**A.** > 100 µM (inactive)

**Q.** What about the GI50 [14] of the same molecule?
**A.** > 100 µM (inactive)

**Q.** And the GI50 [15]?
**A.** > 10 µM (inactive)

**Q.** What about the GI50 [16] of the same molecule?
**A.** > 100 µM (inactive)

**Q.** What about the GI50 [17] of the same molecule?
**A.** > 100 µM (inactive)

**Q.** What about the GI50 [18] of the same molecule?
**A.** > 100 µM (inactive)

**Q.** What about the GI50 [19] of the same molecule?
**A.** > 100 µM (inactive)

**Q.** And the GI50 [20]?
**A.** > 100 µM

**Q.** What about the GI50 [21] of the same molecule?
**A.** > 100 µM (inactive)

**Q.** And the GI50 [22]?
**A.** > 100 µM (inactive)

**Q.** What about the GI50 [23] of the same molecule?
**A.** > 100 µM (inactive)

**Q.** What about the GI50 [24] of the same molecule?
**A.** > 100 µM (inactive)

**Q.** And the GI50 [25]?
**A.** > 100 µM (inactive)

**Q.** And the GI50 [26]?
**A.** > 100 µM (inactive)

**Q.** What about the GI50 [27] of the same molecule?
**A.** > 100 µM (inactive)

**Q.** And the GI50 [28]?
**A.** > 100 µM (inactive)

**Q.** What about the GI50 [29] of the same molecule?
**A.** > 100 µM (inactive)

**Q.** And the GI50 [30]?
**A.** > 100 µM (inactive)

**Q.** And the GI50 [31]?
**A.** > 100 µM (inactive)

**Q.** What about the GI50 [32] of the same molecule?
**A.** > 100 µM (inactive)

**Q.** What about the GI50 [33] of the same molecule?
**A.** > 100 µM (inactive)

**Q.** For COc1ccc(C2S/C(=C\c3cccc(O)c3)C(=O)N2NC(=O)Cc2ccccc2)cc1 (stereo not drawn), which GI50 [1] is on record?
**A.** > 100 µM (inactive)

**Q.** And the GI50 [2]?
**A.** > 100 µM (inactive)

**Q.** And the GI50 [3]?
**A.** > 100 µM (inactive)

**Q.** And the GI50 [4]?
**A.** > 100 µM (inactive)

**Q.** What about the GI50 [5] of the same molecule?
**A.** > 100 µM (inactive)

**Q.** And the GI50 [6]?
**A.** > 100 µM (inactive)

**Q.** What about the GI50 [7] of the same molecule?
**A.** > 100 µM (inactive)

**Q.** And the GI50 [34]?
**A.** > 100 µM (inactive)

**Q.** And the GI50 [35]?
**A.** > 100 µM (inactive)

**Q.** And the GI50 [36]?
**A.** 12 µM (inactive)

**Q.** And the GI50 [37]?
**A.** > 100 µM (inactive)

**Q.** And the GI50 [38]?
**A.** > 100 µM (inactive)

**Q.** And the GI50 [39]?
**A.** > 100 µM (inactive)

**Q.** And the GI50 [40]?
**A.** > 100 µM (inactive)

**Q.** And the GI50 [8]?
**A.** > 100 µM (inactive)

**Q.** What about the GI50 [9] of the same molecule?
**A.** > 100 µM (inactive)

**Q.** What about the GI50 [41] of the same molecule?
**A.** > 100 µM (inactive)

**Q.** What about the GI50 [42] of the same molecule?
**A.** > 100 µM (inactive)

**Q.** And the GI50 [10]?
**A.** > 100 µM (inactive)

**Q.** What about the GI50 [11] of the same molecule?
**A.** > 100 µM (inactive)

**Q.** And the GI50 [13]?
**A.** > 100 µM (inactive)

**Q.** What about the GI50 [14] of the same molecule?
**A.** > 100 µM (inactive)

**Q.** What about the GI50 [43] of the same molecule?
**A.** > 100 µM (inactive)

**Q.** And the GI50 [16]?
**A.** > 100 µM (inactive)

**Q.** And the GI50 [17]?
**A.** > 100 µM (inactive)

**Q.** And the GI50 [18]?
**A.** > 100 µM (inactive)

**Q.** And the GI50 [19]?
**A.** > 100 µM (inactive)

**Q.** What about the GI50 [20] of the same molecule?
**A.** > 100 µM

**Q.** And the GI50 [44]?
**A.** > 100 µM (inactive)

**Q.** What about the GI50 [21] of the same molecule?
**A.** > 100 µM (inactive)

**Q.** What about the GI50 [22] of the same molecule?
**A.** > 100 µM (inactive)

**Q.** And the GI50 [45]?
**A.** > 100 µM (inactive)

**Q.** What about the GI50 [23] of the same molecule?
**A.** > 100 µM (inactive)

**Q.** What about the GI50 [24] of the same molecule?
**A.** > 100 µM (inactive)

**Q.** And the GI50 [46]?
**A.** > 100 µM (inactive)

**Q.** And the GI50 [47]?
**A.** > 100 µM (inactive)

**Q.** And the GI50 [25]?
**A.** > 100 µM (inactive)

**Q.** And the GI50 [26]?
**A.** > 100 µM (inactive)

**Q.** And the GI50 [48]?
**A.** > 100 µM (inactive)

**Q.** What about the GI50 [49] of the same molecule?
**A.** > 100 µM (inactive)

**Q.** And the GI50 [50]?
**A.** > 100 µM (inactive)

**Q.** What about the GI50 [28] of the same molecule?
**A.** > 100 µM (inactive)

**Q.** What about the GI50 [29] of the same molecule?
**A.** > 100 µM (inactive)

**Q.** What about the GI50 [30] of the same molecule?
**A.** > 100 µM (inactive)

**Q.** What about the GI50 [51] of the same molecule?
**A.** > 100 µM (inactive)

**Q.** What about the GI50 [31] of the same molecule?
**A.** > 100 µM (inactive)

**Q.** And the GI50 [52]?
**A.** > 100 µM (inactive)

**Q.** What about the GI50 [53] of the same molecule?
**A.** > 100 µM (inactive)

**Q.** And the GI50 [33]?
**A.** > 100 µM (inactive)

**Q.** What about the GI50 [54] of the same molecule?
**A.** > 100 µM (inactive)

From ChEMBL document CHEMBL1201862, “PubChem BioAssay data set” (2004)
